Test results: US6673902B2, “Cyclin D binding factor, and uses thereof” (St. Jude Children's Research Hospital, priority 1996, dated 2004)

Assays:
[1] = tested on: 32P-BS2 Probe; assay: EMSA with 32P-BS2 probe on transfection lysates of NIH-3T3 fibroblasts; assay type: binding; conditions: EMSA, 32P-BS2 probe, lysates of transfected NIH-3T3 fibroblasts
Method: (§1) Double-stranded oligonucleotides containing potential DMP1 binding sites (BS1 and BS2) and mutated versions (M1-M4) (FIG. 5B) are end-labeled with ^32P using the Klenow fragment of DNA polymerase and α-^32P-dATP (6000 Ci/mmol; Dupont NEN) (8). Nuclear extracts from mouse NIH-3T3 or CTLL cells are prepared with buffer containing 0.4 M NaCl (2). Mammalian cell extracts (15 μg protein) or Sf9 lysates (corresponding to 5×10^2 infected cells) containing ˜4 ng recombinant DMP1 are mixed with 3 ng of ^32P-labeled probe (1×10^5 cpm) in 15 ul Binding buffer containing 2.5 μg of poly(dI-dC) and 2.5 μg BSA and incubated at 4° C. for 30 minutes. For competition experiments, the indicated amounts of unlabeled oligonucleotides are added to the reactions before addition of the labeled probe. In some experiments, a bacterially produced GST-Ets2 fusion protein containing the complete Ets2 DNA-binding domain (10) is used in place of Sf9 extracts containing recombinant DMP1. Protein-DNA complexes are separated on nondenaturing 4% polyacrylamide gels as described (8). Where indicated, antiserum to DMP1 together with 2.5 μg salmon testis DNA (Sigma; used to reduce nonspecific DNA binding activity caused by serum addition) is preincubated with extracts for 30 minutes at 4° C. prior to initiation of binding reactions. Immune complexes are either removed by adsorption to protein A-Sepharose beads (immunodepletion experiments) or are allowed to remain (“supershift” experiments).
A series of deletion mutants and a point mutant of DMP1, K319E, (in which the lysine at position 319 of SEQ ID NO:1 is replaced by a glutamic acid) were prepared and used to determine the DNA-binding domain of DMP1 by electrophoretic mobility shift assay (EMSA) using a ^32P labeled BS2 probe. The DNA-binding domain of DMP1 was mapped to a central region containing the three MYB repeats plus adjacent flanking sequences: a BstEII to NcoI fragment encoding amino acids 87-458 of SEQ ID NO:1 (Table 1). This region alone was necessary and sufficient for DNA binding.

[2] = tested on: DMP1-responsive promoter (pGL2BS2); assay: Transactivation of luciferase reporter plasmid under control of a DMP1-responsive promoter in NIH-3T3 fibroblasts; assay type: cell-based, mouse; conditions: expression vector 3 μg/10 ml, pGL2BS2 8 μg/10 ml; vector without insert set to 1.0
Excerpt: Coexpression of a D-type cyclin with DMP1 overrides the ability of DMP1 to transactivate a luciferase gene under the control of an artificial DMP1-responsive promoter (Table 4), as well as the ability of DMP1 to inhibit cell growth.

[3] = tested on: NIH-3T3 fibroblasts; assay: BrdU incorporation in transfected NIH-3T3 fibroblasts; assay type: cell-based, mouse; conditions: for % Cells BrdU Positive: Table 2, expression vector 3 μg/10 ml; for % Cells BrdU Positive in 10% FCS: nonstarved cells; for % Cells BrdU Positive in 10% FCS / % Cells BrdU Positive in 0.1% FCS: additive None, labeled 22 hours; for % Cells BrdU Positive in 0.1% FCS: starved cells
Method: BrdU is added to NIH-3T3 cells after the experimental treatment and the cells were incubated for twenty-two hours in DMEM plus 10% fetal calf serum (FCS). The cells were then stained for DMP1 expression and/or BrdU incorporation. The nucleic acids encoding the wildtype DMP1 and the deletion and point mutants had been constructed so as to express the corresponding proteins with Flag-tags. To stain for DMP1 expression, mouse monoclonal anti-Flag antibodies (12 μg/ml) [Kodak] were incubated with the cells in TBS-Ca^+ without FCS for one hour at room temperature. After washing the cells, horse anti-mouse biotinylated antibodies at a 1:500 dilution were added to the cells in TBS plus 5% FCS and incubated for 30 minutes at room temperature. After washing the cells, strefptavidin linked to Texas red [Amersham] was then added at a 1:500 dilution for 30 minutes at room temperature. To stain for BrdU incorporation, 1.5N HCl was added to the cells for ten minutes at room temperature to denature the DNA. After washing the cells, sheep anti-BrdU antibodies [Fitzgerald] at a 1:12 dilution were then added for one hour at room temperature. After washing the cells, rabbit FITC-conjugated anti-sheep antibodies [Vector] at 1:100 dilution was then incubated for 30 minutes at room temperature.
NIH-3T3 cells were placed on cover slides and transfected with the expression vectors (pFLEX-DMP1 or the corresponding vector containing the deletion or point mutants of mouse DMP1 plus or minus cyclin D or E) for fourteen hours. The cells were then washed twice and DMEM plus 10% FCS was added and the cells incubated for eight hours. Half of the cells were starved by washing twice with 0.1% FCS, and then incubated for twenty-four hours in 0.1% FCS in DMEM. The remaining cells were not starved but were incubated for twenty-four hours in DMEM plus 10% FCS without washing. BrdU was added to both groups of cells and the cells were incubated for twenty-two hours in DMEM plus 10% FCS.
The cells were then restimulated to enter the cell cycle synchronously with DMEM plus 10% FCS. At the same time, 5′-Bromo-2′ Deoxyuridine (BrdU) was added to the medium. The cells were fixed 22 hours later in methanol acetone (1:1) and stained for BrdU incorporation and DMP1 expression as described in the Materials and Methods.

[4] = target: T1, recombinant DMP1 (Mus musculus, UniProt Q8CE22); assay: EMSA competition with Sf9 lysates producing recombinant DMP1; assay type: binding; conditions: excess unlabeled oligonucleotide
T1 construct: made in house; host or cells: Sf9 insect cells, pAcYM1 baculovirus vector; used as crude lysate (~4 ng DMP1 per reaction)
T1 sequence (Q8CE22 1-761): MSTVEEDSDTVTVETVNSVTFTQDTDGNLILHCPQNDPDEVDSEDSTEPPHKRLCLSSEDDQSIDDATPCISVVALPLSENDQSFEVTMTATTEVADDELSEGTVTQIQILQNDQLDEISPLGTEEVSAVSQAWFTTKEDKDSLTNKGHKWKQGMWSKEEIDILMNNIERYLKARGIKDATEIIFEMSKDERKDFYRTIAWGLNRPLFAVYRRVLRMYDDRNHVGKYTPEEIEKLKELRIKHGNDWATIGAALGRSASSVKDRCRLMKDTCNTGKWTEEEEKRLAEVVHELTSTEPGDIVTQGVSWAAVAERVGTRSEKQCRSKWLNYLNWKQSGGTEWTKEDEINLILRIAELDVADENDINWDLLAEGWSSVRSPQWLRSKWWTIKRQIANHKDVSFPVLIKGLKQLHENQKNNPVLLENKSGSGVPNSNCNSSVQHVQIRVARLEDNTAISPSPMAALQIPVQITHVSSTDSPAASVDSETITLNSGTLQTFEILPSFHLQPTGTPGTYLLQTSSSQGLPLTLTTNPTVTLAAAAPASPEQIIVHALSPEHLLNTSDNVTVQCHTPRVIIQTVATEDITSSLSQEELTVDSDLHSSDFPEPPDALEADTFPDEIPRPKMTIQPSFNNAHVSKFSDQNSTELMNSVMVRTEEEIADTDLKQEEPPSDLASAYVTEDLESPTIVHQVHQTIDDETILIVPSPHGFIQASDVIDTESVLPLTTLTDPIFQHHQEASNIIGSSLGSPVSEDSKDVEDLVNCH
Method: as §1
(§2) Using electrophoretic mobility shift assays (EMSA) performed after mixing a titrated excess (3 ng) of ^32P-end labeled BS1 probe with Sf9 lysates producing DMP1 (˜4 ng recombinant protein per reaction), a BS1-containing protein complex is detected that was competed with an excess of unlabeled BS1 oligonucleotide but not with mutant oligonucleotides M1 and M2 (FIG. 6A). […] More subtle mutations within this region may be tolerated, because high concentrations of M4 competed for BS1 binding to both Ets2 and DMP1 in subsequent studies (FIG. 5B and see below). DMP1 also binds a BS2 probe, and the binding is competed by excess BS2 or BS1 (FIG. 6B). In agreement with the site selection frequencies (FIG. 5A), binding of ^32P-BS1 under equivalent conditions was competed more efficiently by excess unlabeled BS1 than by BS2 (FIG. 6B). […] In agreement, Ets2 binding to BS1 could be competed with excess unlabeled BS1 and M3, but not by BS2 (FIG. 6C). Therefore, although both DMP1 and Ets2 can each bind to BS1 sequences, their exclusive interactions with BS2 and M3, respectively, help to distinguish DMP1 and Ets binding activities (summarized in FIG. 5B).

[5] = target: T2, GST-Ets2 fusion protein (Homo sapiens, UniProt P15036); assay: EMSA competition with bacterial GST-Ets2 fusion protein; assay type: binding; conditions: excess unlabeled oligonucleotide
T2 construct: made in house; host or cells: bacteria
T2 sequence (P15036 363-443 limits assumed): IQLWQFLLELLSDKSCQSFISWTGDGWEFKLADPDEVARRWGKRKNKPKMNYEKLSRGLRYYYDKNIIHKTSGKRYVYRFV
Method: as §1, §2

[6] = target: T3, cyclin D1 (Mus musculus, UniProt P25322); assay: Flag immunoprecipitation from SF9 lysates and Western blot for cyclin D1; assay type: binding; conditions: cotransfected with cyclin D1 in SF9 cells
T3 construct: expressed in transfected cells; host or cells: SF9 insect cells
Excerpt: The series of DMP1 deletion mutants and the K319E point mutant were then used to determine the cyclin D binding domain of DMP1. Expression vectors encoding murine wild-type DMP1, the corresponding deletion mutations, or K319E (i.e., wildtype DMP1 and M1-M11, defined in FIG. 10, Table 1) were cotransfected with an expression vector encoding cyclin D1 into SF9 cells. Wildtype DMP1 and M1-M11 were expressed containing Flag-tags. SF9 lysates were immunoprecipitated with an antibody raised against the Flag-tag. The immunoprecipitates were resolved individually by gel electrophoresis, and then Western blotted with an antibody raised against cyclin D1. […] Therefore, deletion of the N-terminal domain of DMP1 (i.e., amino acids 1-223) abrogates its ability to interact with D-type cyclins, and thus, the region of DMP1 from residues 1-223 contains a specific cyclin D interaction motif required for D-type cyclin-DMP1 association.

T3 sequence (P25322 whole entry): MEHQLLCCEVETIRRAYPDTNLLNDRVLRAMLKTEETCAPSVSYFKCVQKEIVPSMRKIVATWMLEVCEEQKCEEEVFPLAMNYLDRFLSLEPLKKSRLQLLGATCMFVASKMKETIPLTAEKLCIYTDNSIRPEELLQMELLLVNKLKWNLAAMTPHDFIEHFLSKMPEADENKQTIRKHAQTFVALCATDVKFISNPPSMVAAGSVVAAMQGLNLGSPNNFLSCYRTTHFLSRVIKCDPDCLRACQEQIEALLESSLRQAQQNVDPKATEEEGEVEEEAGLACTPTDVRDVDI

Row | Substance | 32P-labeled Band [1] | Luciferase Activity [2] | % Cells BrdU Positive [3] | competition for 32P-BS1 probe binding to DMP1 [4] | competition for BS1 binding to Ets2 [5] | band corresponding to cyclin D1 in Flag immunoprecipitate [6] | % Cells BrdU Positive in 10% FCS [3] | % Cells BrdU Positive in 0.1% FCS [3] | competition for BS2 probe binding to DMP1 [4]
1 | M1: DMP1 deletion mutant (EcoNI), amino acids 1-661 of SEQ ID NO:1 | Yes | 6.7 | 12% | not |  |  |  |  | 
2 | M2: DMP1 deletion mutant (StuI), amino acids 1-520 of SEQ ID NO:1 | Yes | 3.6 | 20% | not |  |  |  |  | 
3 | M4: DMP1 deletion mutant (BstBI), amino acids 1-380 of SEQ ID NO:1 | No | 1.0 | 52% | competed | competed |  |  |  | 
4 | M5: DMP1 deletion mutant (XbaI and BstEII), amino acids 87-761 of SEQ ID NO:1 | Yes | 6.2 | 32% |  |  | particularly faint |  |  | 
5 | M6: DMP1 deletion mutant, amino acids 1-86; 170-761 of SEQ ID NO:1 | No | 1.0 | 48% |  |  |  | 44% | 47% | 
6 | M7: DMP1 deletion mutant, amino acids 1-169; 238-761 of SEQ ID NO:1 | No | 0.9 | 36% |  |  |  |  |  | 
7 | M8: DMP1 deletion mutant, amino acids 1-237; 381-761 of SEQ ID NO:1 | No | 1.1 | 54% |  |  |  | 54% | 54% | 
8 | M9: DMP1 5′ deletion mutant, amino acids 234-761 of SEQ ID NO:1 | No | 1.0 | 50% |  |  | cyclin D1 binding domain is missing |  |  | 
9 | M10: DMP1 deletion mutant (BstEII and NcoI), amino acids 87-458 of SEQ ID NO:1 | Yes | 1.1 | 56% |  |  |  |  |  | 
10 | oligonucleotide BS1: probe/competitor BS1, SEQ ID NO:10, DMP1 binding site with GGA core (DNA AATTGACCCGGATGTAGGTACGC; chemistry not given here) |  |  |  | competed | competed |  |  |  | competed
